For 79 compounds, RP-LC retention time results are on record in the METLIN SMRT retention time set (Domingo-Almenara et al. 2019).

A short description of the data set: gradient 5% acetonitrile 3 min, to 50% in 2 min, to 85% in 15 min, held 3 min, 100 µL/min. The following applies: column: Zorbax Extend-C18 2.1 x 50 mm; eluents: water / acetonitrile, 0.1% formic acid. An outline of the steps: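 A Zorbax Extend-C18 column (2.1 × 50 mm, 1.8 μm) run at 100 μL/min with water and acetonitrile, both containing 0.1% formic acid, separated mixtures of ~100 pure standards. The HPLC was coupled to a quadrupole time-of-flight mass spectrometer operated in positive and negative ionization mode, with dead and dwell volumes of 40 μL and 900 μL. Each retention time was taken from a computationally picked adduct peak that was then manually inspected.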
`COC(=O)c1[nH]c(C)c(C(=O)C(C)N(CC2CCCCC2)C(=O)c2ccccc2)c1C` (centres undefined) yielded an RP-LC retention time of 1050 s.

On to `Cc1ccc(NC(=O)C2CCCN(S(=O)(=O)c3cn(C(C)C)cn3)C2)cc1Cl` (centres undefined), for which the RP-LC retention time came to 879 s.

Turning to `CCCn1cnc2c(Sc3c([N+](=O)[O-])ncn3C)nc(N)nc21`, the RP-LC retention time amounted to 681 s.

`CCOC(=O)c1sc(NC(=O)CSc2nc3ccccc3[nH]2)nc1C` had an RP-LC retention time of 810 s.

`COc1ccc(NC(=O)N(C)CCc2noc(COc3ccccc3)n2)cc1OC` came in with an RP-LC retention time of 788 s.

Take `CCOc1ccc2c(n1)CCN(C(=O)C1(c3ccccc3)CC1)C2`: the RP-LC retention time was determined as 952 s.

Compound `CCOc1ccccc1NC(=O)N1CCCC(C)(C(=O)NCc2ccccc2C)C1` (centres undefined) returned an RP-LC retention time of 860 s.

Take `CN1C(=O)Cc2cc(NC(=O)c3cccs3)ccc21`: the RP-LC retention time was 631 s.

As for `Cc1c(Cl)ccc2c(=O)c3c([nH]c12)CCN(CC(=O)Nc1cc(F)cc(F)c1)C3`, the RP-LC retention time is 664 s.

In turn, `Cc1ccc2oc(N3CCN(C(=O)c4cccc(-c5noc(C)n5)c4)CC3)nc2n1` had an RP-LC retention time of 623 s.

As for `Cc1ccnc(N2CCCC(C(=O)NCCCN3CCN(c4cc(Cl)ccc4C)CC3)C2)n1` (centres undefined), the RP-LC retention time was found to be 670 s.

`Cc1cc(-c2nnc(-c3ccc(F)cc3)o2)c(C)n1CC(=O)Nc1ccc2c(c1)OCCO2` registered an RP-LC retention time of 916 s.

With `CCN1C(=O)CCc2cc(NS(=O)(=O)c3ccc(C4CCCCC4)cc3)ccc21`, the RP-LC retention time was 1060 s.

For `Clc1ccc(-c2nc(N3CCC4(CC3)OCCO4)c3ccccc3n2)cc1`, the RP-LC retention time amounted to 822 s.

Compound `Cc1cn(C)c(CC(=O)NCCCN2CCCCCC2)c1C(=O)O` showed an RP-LC retention time of 593 s.

`Cc1ccc2c(Nc3ccc(C)c(F)c3)c(C(=O)N3CCSCC3)cnc2n1` yielded an RP-LC retention time of 642 s.

As to `Cc1cc(C)c(-c2noc(C)n2)c(NC(=O)c2ccccc2Br)n1`, the RP-LC retention time was 762 s.

On to `COc1ccc(OCc2noc(CNC(=O)NCc3cccs3)n2)cc1`, for which the RP-LC retention time was found to be 737 s.

In turn, `CCc1ccc(Nc2nc(C(=O)N3CCOCC3)nc3ccccc23)cc1` displayed an RP-LC retention time of 771 s.

`COc1ccc(Cl)cc1NS(=O)(=O)c1ccc(-c2nnc(C3CCC3)o2)o1` displayed an RP-LC retention time of 958 s.

On to `COc1ccc(S(=O)(=O)NC(CC(=O)O)c2ccccc2)cc1` (centres undefined), for which the RP-LC retention time is 674 s.

The compound `COc1cc(OC)c(OC)cc1CC1C(=O)Nc2ccccc21` (centres undefined) showed an RP-LC retention time of 770 s.

As to `COc1ccc(C(C)NC(=O)Cc2c[nH]c3ncccc23)cc1` (centres undefined), the RP-LC retention time came out at 614 s.

On to `O=C(Cc1cccs1)Nc1cnc(-c2ccccc2)nc1`, for which the RP-LC retention time came out at 893 s.

Turning to `CC(C)c1cccc(NC(=O)Cn2nc3n(c2=O)CCCCC3)c1`, the RP-LC retention time was 700 s.

Take `CCn1cc(NC(=O)Nc2nc(C)cs2)c2ccccc21`: the RP-LC retention time came to 792 s.

`Cc1nc2cc(N3CCC(C(=O)NCCC4=CCCCC4)CC3)cnc2nc1C` displayed an RP-LC retention time of 767 s.

In turn, `CN(C)[C@@H]1CN(C(=O)c2cc3cc(Cl)ccc3[nH]2)C[C@H]1CO` came in with an RP-LC retention time of 622 s.

`CCc1ccc(NC(=O)Cn2nc3cc(C)nc(Nc4ccc(C)c(F)c4)n3c2=O)cc1` displayed an RP-LC retention time of 1190 s.

`COc1ccc(-c2noc(-c3nnn4c3COC(c3ccc(F)cc3)C4)n2)cc1OC` (centres undefined) showed an RP-LC retention time of 1020 s.

In the case of `Cc1c(C(=O)NC2CC2)cnn1-c1ccc(-c2nc(C3CC3)no2)cn1`, the RP-LC retention time turned out to be 825 s.

In turn, `CN(C)CCCNC(=O)Cn1c(=O)n(-c2ccc(F)cc2)c2ncccc21` came in with an RP-LC retention time of 577 s.

Compound `O=C([C@H]1C[C@@H](F)CN1S(=O)(=O)c1ccc(Cl)cc1)N1CCOCC1` came in with an RP-LC retention time of 711 s.

`O=C(Nc1ccc2c(c1)CN(C(=O)c1cccs1)CC2)c1cnccn1` registered an RP-LC retention time of 708 s.

With `O=C(Cc1nnc(-c2ccc3ncccc3c2)o1)Nc1ccc(F)c(F)c1`, the RP-LC retention time stood at 741 s.

Regarding `C=CCSc1nnc(Cc2cc(=O)[nH]c(=O)[nH]2)n1-c1ccc(Cl)cc1`, the RP-LC retention time was 624 s.

On to `O=C(CSc1nnc2c3sc(N4CCCC4)nc3ncn12)Nc1cccc(Cl)c1`, for which the RP-LC retention time was 874 s.

As for `CCOc1ccccc1-c1noc(-c2cc(-c3ccccc3)n[nH]2)n1`, the RP-LC retention time turned out to be 952 s.

Regarding `COc1ccc(-c2cn3ccn(-c4cccc(Cl)c4)c(=O)c3n2)cc1`, the RP-LC retention time was found to be 837 s.

As to `COc1ccccc1C(=O)NC1(C(F)(F)F)C(=O)N(CC2CCCO2)C(C)=C1C(C)=O` (centres undefined), the RP-LC retention time was determined as 774 s.

With `CCCNC(=O)CCc1cc2cc(OC)ccc2[nH]c1=O`, the RP-LC retention time was 634 s.

`CCOc1nc2ccccc2nc1N1CCCC(C(=O)Nc2ccc(Br)cc2C)C1` (centres undefined) gave an RP-LC retention time of 1320 s.

The compound `COc1cc(NC(=O)C2CCN(c3nccnc3Sc3ccccc3)CC2)cc(OC)c1` had an RP-LC retention time of 1040 s.

`COC(=O)Cn1c(=O)c(=O)n(CC(=O)OC)c2ccccc21` returned an RP-LC retention time of 640 s.

Compound `O=C(Nc1c(-c2ccc(F)cc2)nc2ccccn12)c1cccc(F)c1` showed an RP-LC retention time of 674 s.

The compound `COc1ccc(NC(=O)Cn2cnc3nc4c(cc3c2=O)CCCC4)cc1` had an RP-LC retention time of 695 s.

Regarding `COC(=O)c1ccc(NC(=O)C(=O)NCC2(c3ccc(F)cc3)CC2)cc1`, the RP-LC retention time stood at 834 s.

The compound `CCn1cc(S(=O)(=O)NCc2ccccc2)c2cccnc21` displayed an RP-LC retention time of 804 s.

In the case of `CNC(=O)c1ccc(-c2nc3cc(NS(=O)(=O)c4cc(C)c(C)cc4C)ccc3n2C)cc1`, the RP-LC retention time amounted to 713 s.

The compound `O=C(Nc1cccc2ccc(-n3ccnc3)nc12)c1ccsc1` returned an RP-LC retention time of 615 s.

Take `O=C(Cn1ncc2c(N3CCN(c4ccccn4)CC3)ncnc21)Nc1ccc(Br)cc1`: the RP-LC retention time stood at 652 s.

Consider `O=C(OCn1nnc2ccccc2c1=O)c1ccc(S(=O)(=O)N2CCCCC2)cc1`, for which the RP-LC retention time turned out to be 936 s.

`COc1ccc(NC(=O)N2CCC(c3cc(N)on3)CC2)cc1` displayed an RP-LC retention time of 640 s.

For `COC(=O)c1c(C)[nH]c(C(=O)N2CCCC(C(=O)NCc3ccc(C)cc3)C2)c1C` (centres undefined), the RP-LC retention time amounted to 754 s.

`Cc1nc(CC(=O)Nc2ccc(Cl)c(F)c2)sc1C(=O)NC1CC1` registered an RP-LC retention time of 750 s.

`O=C1CN(C(=O)CN2CCCCC2)C(c2ccccc2)c2cc(Br)ccc2N1` (centres undefined) registered an RP-LC retention time of 656 s.

`COc1cccc(Oc2nccnc2N2CCC(C(=O)N3CCN(c4ccccn4)CC3)CC2)c1` gave an RP-LC retention time of 658 s.

As to `COCc1nncn1C1CN(C(=O)Cc2cc(OC)cc(OC)c2)C1`, the RP-LC retention time stood at 620 s.

Consider `O=C(NCc1ccc(Br)cc1)C1CCCN(c2nccnc2Sc2ccccc2)C1` (centres undefined), for which the RP-LC retention time stood at 1110 s.

For `CCc1ccc(Oc2cc(N3CCC(C(=O)NCCc4ccccn4)CC3)ncn2)cc1`, the RP-LC retention time was 656 s.

`COc1ccc(-c2noc(C3CCCN3C(=O)Nc3cccc(Cl)c3)n2)cc1` (centres undefined) returned an RP-LC retention time of 1020 s.

`COc1cccc(-c2nc(CS(=O)(=O)CC(=O)N3CCN(c4ccccn4)CC3)c(C)o2)c1` came in with an RP-LC retention time of 631 s.

In the case of `CCOC(=O)N1CCN(C(=O)Nc2nc(CC(=O)NC3CCCCCC3)cs2)CC1`, the RP-LC retention time is 704 s.

In the case of `O=c1c2sccc2n(Cc2nc(-c3ccc(OC(F)(F)F)cc3)no2)c(=O)n1-c1ccccc1`, the RP-LC retention time was 1080 s.

As to `COc1ccccc1NC(=O)N1CCN(Cc2nc3cc(Cl)ccc3o2)CC1`, the RP-LC retention time turned out to be 771 s.

`CCN(Cc1ccccc1)c1ncc(NC(=O)c2ccccc2Cl)cc1C(=O)O` displayed an RP-LC retention time of 723 s.

`Cc1cccn2cc(-c3cccc(S(=O)(=O)N4CC(C)CC(C)C4)c3)nc12` (centres undefined) yielded an RP-LC retention time of 828 s.

`Cc1oc2c(C)c3oc(=O)c(CCC(=O)N4CCN(c5ccccn5)CC4)c(C)c3cc2c1C` had an RP-LC retention time of 728 s.

`Cc1nn(-c2ccccc2)c(C)c1CCc1nn2c(-c3ccccc3F)nnc2s1` returned an RP-LC retention time of 865 s.

On to `CSc1ccccc1NC(=O)C(C)Cn1nc(-c2ccco2)ccc1=O` (centres undefined), for which the RP-LC retention time is 707 s.

Regarding `Cc1ccccc1CN1N=C(C(=O)N2CCC(C)CC2)S(=O)(=O)c2ccccc21`, the RP-LC retention time was determined as 1050 s.

Regarding `CCOc1ccccc1NC(=O)NCC(c1cccnc1)c1c[nH]c2ccccc12` (centres undefined), the RP-LC retention time came out at 684 s.

`O=C(CN1C(=O)CCCc2cc(S(=O)(=O)N3CCCC3)ccc21)Nc1ccccc1` registered an RP-LC retention time of 803 s.

Consider `c1ccc(-c2noc(-c3ccc(N4CCN(C5CCCCC5)CC4)nc3)n2)cc1`, for which the RP-LC retention time is 772 s.

In turn, `COCCc1nncn1C1CCN(S(=O)(=O)c2cccc(F)c2)CC1` showed an RP-LC retention time of 696 s.

In turn, `COc1ccc2[nH]cc(CCNC(=O)c3cc(-c4ccccn4)nc4ccccc34)c2c1` yielded an RP-LC retention time of 814 s.

As to `Nc1c(C(=O)c2ccccc2)sc2[nH]c(=O)c(C(=O)O)cc12`, the RP-LC retention time was found to be 733 s.

Regarding `Cc1ccsc1C(=O)Nc1cccn2nc(C3CCC3)nc12`, the RP-LC retention time came out at 1030 s.

Regarding `COc1ccc(OC)c2[nH]c(C(=O)N[C@H](C(=O)O)c3ccccc3)cc12`, the RP-LC retention time worked out at 891 s.
